Patent US20250122160A1, “PROTEIN TYROSINE PHOSPHATASE INHIBITORS AND METHODS OF USE THEREOF” (Calico Life Sciences LLC, priority 0001, published 2025)

Experiments:
[1] = biological target: T1, His tagged PTPN2 (TC45) protein (Homo sapiens, UniProt P17706); experiment: Mobility shift assay (MSA) to determine potency of PTPN2 inhibitors; format: biochemical; details: 0.5 nM enzyme, 2 μM substrate
T1 construct: made in house
T1 sequence (P17706 with tags, fused parts or gaps isoform P17706-2): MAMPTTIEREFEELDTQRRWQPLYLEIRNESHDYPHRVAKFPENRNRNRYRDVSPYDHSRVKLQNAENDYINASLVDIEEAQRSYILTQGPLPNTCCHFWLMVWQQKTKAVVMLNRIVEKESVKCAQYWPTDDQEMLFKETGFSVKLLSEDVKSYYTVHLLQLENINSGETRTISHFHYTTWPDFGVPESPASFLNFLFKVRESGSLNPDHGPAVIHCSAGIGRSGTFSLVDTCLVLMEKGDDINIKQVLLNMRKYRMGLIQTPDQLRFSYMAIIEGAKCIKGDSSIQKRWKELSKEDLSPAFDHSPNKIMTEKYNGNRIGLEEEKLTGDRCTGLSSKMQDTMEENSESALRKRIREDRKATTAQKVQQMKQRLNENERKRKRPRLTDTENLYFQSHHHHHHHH
Method: Compound activity was determined using in house His tagged PTPN2 (TC45) protein (SEQ ID NO: 1) in an in vitro enzymatic reaction. The enzymatic assay used to determine activity was a mobility shift assay using a LabChip EZ Reader by Caliper Life Sciences. The enzymatic reaction was carried out in assay buffer (50 mM HEPES pH 7.5, 1 mM EGTA, 10 mM EDTA, 0.01% Tween® 20, and 2 mM DTT). The compounds were dispensed on a white 384 well ProxiPlate™ (PerkinElmer Catalog #6008289) plate using the Labcyte Echo at varying concentrations (12 point, 1:3 dilution). The enzyme (at 0.5 nM) was incubated with compound for 10 minutes at room temperature. Then the substrate (phosphorylated insulin receptor probe sequence: ((OG488)-(NH—CH2—CH2—O—CH2—CH2—O—CH2—CO)-T-R-D-I-(PY)-E-T-D-Y—Y—R—K—K—NH2) (SEQ ID NO: 2) was added at 2 μM to the plates and incubated for another 10 minutes at room temperature. Finally, a quench solution (water and 4-bromo-3-(2-oxo-2-propoxyethoxy)-5-(3-{[1-(phenylmethanesulfonyl)piperidin-4-yl]amino}phenyl)thiophene-2-carboxylic acid) was added to the plates, which were then run on the EZ Reader (excitation 488 nm, emission 530 nm) to measure % conversion (the amount of phosphorylated substrate which was de-phosphorylated by PTPN2). […] The % inhibition was then used to calculate the IC50 values.

[2] = biological target: T2, His tagged full-length PTPN1 protein (Homo sapiens, UniProt P18031); experiment: Mobility shift assay (MSA) to determine potency of PTPN1 inhibitors; format: biochemical; details: 0.5 nM enzyme, 2 μM substrate
T2 construct: made in house
T2 sequence (P18031 with tags, fused parts or gaps): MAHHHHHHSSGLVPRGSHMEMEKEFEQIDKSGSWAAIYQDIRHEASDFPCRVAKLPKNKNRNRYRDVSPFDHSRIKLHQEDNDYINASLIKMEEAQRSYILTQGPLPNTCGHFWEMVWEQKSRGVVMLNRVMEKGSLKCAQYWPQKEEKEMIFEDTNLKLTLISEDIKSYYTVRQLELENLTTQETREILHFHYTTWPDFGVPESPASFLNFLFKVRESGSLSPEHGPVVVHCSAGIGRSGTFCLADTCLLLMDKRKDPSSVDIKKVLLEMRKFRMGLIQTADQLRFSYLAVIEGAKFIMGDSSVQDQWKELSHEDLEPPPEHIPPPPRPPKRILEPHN
Method: Compound activity was determined using in house His tagged full-length PTPN1 protein (SEQ ID NO: 3) in an in vitro enzymatic reaction. The enzymatic assay used to determine activity is a mobility shift assay using a LabChip EZ Reader by Caliper Life Sciences. The enzymatic reaction was carried out in assay buffer (50 mM HEPES pH 7.5, 1 mM EGTA, 10 mM EDTA. 0.01% Tween® 20, and 2 mM DTT). The compounds were dispensed on a white 384 well ProxiPlate™ (PerkinElmer Cat #6008289) plate using a Labcyte Echo® liquid handler at varying concentrations (12 point, 1:3 dilution). The enzyme (at 0.5 nM) was incubated with compound for 10 minutes at room temperature. Then the substrate (phosphorylated insulin receptor probe sequence: ((OG488)-(NH—CH2—CH2—O—CH2—CH2—O—CH2—CO)-T-R-D-I-(PY)-E-T-D-Y—Y—R—K—K—NH2) (SEQ ID NO: 2) was added at 2 μM to the plates and incubated for another 10 minutes at room temperature. Finally, a quench solution (water and 4-bromo-3-(2-oxo-2-propoxyethoxy)-5-(3-{[1-(phenylmethanesulfonyl)piperidin-4-yl]amino}phenyl)thiophene-2-carboxylic acid) was added to the plates, which were then run on the EZ Reader (excitation 488 nm, emission 530 nm) to measure % conversion (the amount of phosphorylated substrate which was de-phosphorylated by PTPN1). […] The % inhibition was then used to calculate the IC50 values.

SMILES	IC50 [2]	IC50 [1]
Cc1n[nH]c(C)c1CN1CCc2cc(O)c(N3CC(=O)NS3(=O)=O)c(F)c2C1 [Compound 212]	> 100 nM	> 100 nM
C[C@H]1C[C@@H](N)Cc2c1cc(O)c(N1CC(=O)NS1(=O)=O)c2F [Compound 398, 5-[(5S,7R)-7-amino-1-fluoro-3-hydroxy-5-methyl-5,6,7,8-tetrahydronaphthalen-2-yl]-1λ^6,2,5-thiadiazolidine-1,1,3-trione]	10 to 100 nM	10 to 100 nM
COC(CN1CCc2cc(O)c(N3CC(=O)NS3(=O)=O)c(F)c2C1)C1CCCC1 (centres unmarked) [Compound 249]	10 to 100 nM	10 to 100 nM
O=C1CN(c2c(O)cc3c(c2F)CN(CC2CC(F)(F)C2)CC3)S(=O)(=O)N1 [Compound 162]	10 to 100 nM	1 to 10 nM
O=C1CN(c2c(O)cc3c(c2F)C[C@H](NCCC2CCOC2)CO3)S(=O)(=O)N1 (stereo partly drawn) [Compound 382, 5-[(3S)-5-fluoro-7-hydroxy-3-{[2-(oxolan-3-yl)ethyl]amino}-3,4-dihydro-2H-1-benzopyran-6-yl]-1λ^6,2,5-thiadiazolidine-1,1,3-trione]	10 to 100 nM	10 to 100 nM
O=C1CN(c2c(O)cc3c(c2F)CN(CCC2CCCCC2)CC3)S(=O)(=O)N1 [Compound 179]	10 to 100 nM	10 to 100 nM
O=C1CN(c2c(O)cc3c(c2F)CCCC3)S(=O)(=O)N1 [Compound 108]	10 to 100 nM	10 to 100 nM
NC[C@H]1CCc2cc(O)c(N3CC(=O)NS3(=O)=O)c(F)c2C1 [Compound 404, 5-[(7S)-7-(aminomethyl)-1-fluoro-3-hydroxy-5,6,7,8-tetrahydronaphthalen-2-yl]-1λ^6,2,5-thiadiazolidine-1,1,3-trione]	10 to 100 nM	10 to 100 nM
O=C1CN(c2c(O)cc3c(c2F)CN(CC2CNC2)CC3)S(=O)(=O)N1 [Compound 165]	10 to 100 nM	10 to 100 nM
O=C1CN(c2c(O)cc3c(c2F)CN(CCCC2CCOCC2)CC3)S(=O)(=O)N1 [Compound 196]	10 to 100 nM	10 to 100 nM
O=C1CN(c2c(O)cc3c(c2F)C[C@H](NCC2CCC(C(F)(F)F)CC2)CO3)S(=O)(=O)N1 (stereo partly drawn) [Compound 380, 5-[(3S)-5-fluoro-7-hydroxy-3-({[4-(trifluoromethyl)cyclohexyl]methyl}amino)-3,4-dihydro-2H-1-benzopyran-6-yl]-1λ^6,2,5-thiadiazolidine-1,1,3-trione]	10 to 100 nM	10 to 100 nM
O=C1CN(c2c(O)cc3c(c2F)C[C@H](NCc2cccnc2)CC3)S(=O)(=O)N1 [Compound 347, 5-[(7R)-1-fluoro-3-hydroxy-7-{[(pyridin-3-yl)methyl]amino}-5,6,7,8-tetrahydronaphthalen-2-yl]-1λ^6,2,5-thiadiazolidine-1,1,3-trione]	10 to 100 nM	10 to 100 nM
Cc1nn(CC(F)F)c(C)c1CCN1Cc2c(cc(O)c(N3CC(=O)NS3(=O)=O)c2F)C(F)(F)C1 [Compound 226]	10 to 100 nM	10 to 100 nM
COCC(C)(C)CNC(=O)N1CCc2cc(O)c(N3CC(=O)NS3(=O)=O)c(F)c2C1 [Compound 279]	10 to 100 nM	10 to 100 nM
CC(C)OCCCN1CCc2cc(O)c(N3CC(=O)NS3(=O)=O)c(F)c2C1 [Compound 251]	10 to 100 nM	10 to 100 nM
CN1CCN(CCCN2CCc3cc(O)c(N4CC(=O)NS4(=O)=O)c(F)c3C2)CC1 [Compound 232]	10 to 100 nM	> 100 nM
O=C1CN(c2c(O)cc3c(c2F)CN(CCCc2ccccc2F)CC3)S(=O)(=O)N1 [Compound 303]	10 to 100 nM	1 to 10 nM
O=C1CN(c2c(O)cc3c(c2F)C[C@H](NCc2cccnn2)CC3)S(=O)(=O)N1 [Compound 349, 5-[(7R)-1-fluoro-3-hydroxy-7-{[(pyridazin-3-yl)methyl]amino}-5,6,7,8-tetrahydronaphthalen-2-yl]-1λ^6,2,5-thiadiazolidine-1,1,3-trione]	10 to 100 nM	10 to 100 nM
O=C1CN(c2c(O)cc3c(c2F)CC(O)CC3)S(=O)(=O)N1 (centres unmarked) [Compound 335, 5-(1-fluoro-3,7-dihydroxy-5,6,7,8-tetrahydronaphthalen-2-yl)-1λ^6,2,5-thiadiazolidine-1,1,3-trione]	10 to 100 nM	10 to 100 nM

Continued, in another order:

IC50 [2]	SMILES	IC50 [1]
1 to 10 nM	Cc1nn(C)c(C)c1CCN1CCc2cc(O)c(N3CC(=O)NS3(=O)=O)c(F)c2C1 [Compound 209]	1 to 10 nM
10 to 100 nM	O=C1CN(c2c(O)cc3c(c2F)CN(C(=O)NCC2CCOCC2)CC3)S(=O)(=O)N1 [Compound 261]	10 to 100 nM
10 to 100 nM	O=C1CN(c2c(O)cc3c(c2F)CN(C(=O)NCCC2CC2)CC3)S(=O)(=O)N1 [Compound 264]	10 to 100 nM
10 to 100 nM	O=C1CN(c2c(O)cc3c(c2F)CN(CCCCCC(F)(F)F)CC3)S(=O)(=O)N1 [Compound 161]	1 to 10 nM
10 to 100 nM	O=C1CN(c2c(O)cc3c(c2F)C[C@H](NCC2CCOC2)CC3)S(=O)(=O)N1 (stereo partly drawn) [Compound 361, 5-[(7R)-1-fluoro-3-hydroxy-7-{[(oxolan-3-yl)methyl]amino}-5,6,7,8-tetrahydronaphthalen-2-yl]-1λ^6,2,5-thiadiazolidine-1,1,3-trione]	1 to 10 nM
1 to 10 nM	NCC(F)(F)CCCN[C@@H]1CCc2cc(O)c(N3CC(=O)NS3(=O)=O)c(F)c2C1 [Compound 409, 5-{(7R)-7-[(5-amino-4,4-difluoropentyl)amino]-1-fluoro-3-hydroxy-5,6,7,8-tetrahydronaphthalen-2-yl}-1λ^6,2,5-thiadiazolidine-1,1,3-trione]	1 to 10 nM
1 to 10 nM	O=C1CN(c2c(O)cc3c(c2F)C[C@H](NCCC2(CO)CCC2)CC3)S(=O)(=O)N1 [Compound 338, 5-[(7R)-1-fluoro-3-hydroxy-7-({2-[1-(hydroxymethyl)cyclobutyl]ethyl}amino)-5,6,7,8-tetrahydronaphthalen-2-yl]-1λ^6,2,5-thiadiazolidine-1,1,3-trione]	< 1 nM
1 to 10 nM	[2H]C1([2H])Cc2cc(O)c(N3CC(=O)NS3(=O)=O)c(F)c2C([2H])([2H])[C@]1([2H])NCCC(C)C (single isomer, unassigned) [Compound 371]	< 1 nM
1 to 10 nM	Cc1noc(C)c1CCN1CCc2cc(O)c(N3CC(=O)NS3(=O)=O)c(F)c2C1 [Compound 211]	1 to 10 nM
1 to 10 nM	Cc1nn(C)cc1CCN1CCc2cc(O)c(N3CC(=O)NS3(=O)=O)c(F)c2C1 [Compound 256]	1 to 10 nM
< 1 nM	O=C1CN(c2c(O)cc3c(c2F)C[C@H](NCCC2CCCC2)CC3)S(=O)(=O)N1 [Compound 200, 5-{(7R)-7-[(2-cyclopentylethyl)amino]-1-fluoro-3-hydroxy-5,6,7,8-tetrahydronaphthalen-2-yl}-1λ^6,2,5-thiadiazolidine-1,1,3-trione]	< 1 nM
1 to 10 nM	O=C1CN(c2c(O)cc3c(c2F)CN(CCC2(C(F)(F)F)CC2)CC3)S(=O)(=O)N1 [Compound 243]	1 to 10 nM
